In US20230126447A1, “OCULAR DRUG DEPOT FOR COMPLEMENT-MEDIATED DISORDERS” (priority 2020, published 2023):
Where two headings read alike, the source gives them in different places.

Experiment: Ocular tissue distribution and pharmacokinetics, 7.5 and 15 mg/kg oral, pigmented Dutch Belted rabbits (Example 7)
Type: in vivo
Conditions: for Mean retina concentration / Mean plasma concentration / concentration at 0 h / concentration at 1 h / concentration at 6 h / concentration at 24 h / concentration at 96 h / concentration at 168 h / concentration at 12 h / concentration at 240 h: DB rabbits; for Tmax / concentration at 0 h / concentration at 1 h / concentration at 6 h / concentration at 24 h / concentration at 96 h / concentration at 168 h / concentration at 12 h / concentration at 240 h / MRT last: Dutch Belted, rabbit; for concentration at 0 h / concentration at 1 h / concentration at 6 h / concentration at 24 h / concentration at 96 h / concentration at 168 h / concentration at 12 h / concentration at 240 h: oral
Protocol: For Group 1, two animals/time point were sacrificed via an overdose of sodium pentobarbital at approximately 1, 6, 12, 24, 96, 168, and 240 hours postdose. Blood (approximately 2 mL) was collected from all animals at sacrifice into tubes containing K2EDTA via exsanguination (cardiac puncture).
For Groups 2 through 4, blood (approximately 2 mL) was collected via a jugular vein using a syringe and needle and was transferred into tubes containing K2EDTA at approximately 12 hours after the a.m. dose on Day 15 from the two animals designated for sacrifice at approximately 240 hours after the a.m. dose on Day 15.
For Groups 2 through 4, two animals/group/time point were sacrificed via an overdose of sodium pentobarbital prior to dosing on Day 15 and at approximately 1, 6, 24, 96, 168, and 240 hours after the a.m. dose on Day 15. Blood (approximately 2 mL) was collected from all animals at sacrifice into tubes containing K2EDTA via exsanguination (cardiac puncture).
Blood was maintained on wet ice, in chilled cryoracks, or at approximately 5° C. prior to centrifugation to obtain plasma. Centrifugation began within 1 hour of collection (Deviation). Plasma was placed into 96-well tubes with barcode labels. Plasma was maintained on dry ice prior to storage at approximately −70° C.
At the time of sacrifice, both eyes were enucleated, and the following tissues were collected. Each eye was flash-frozen in liquid nitrogen for 15 to 20 seconds. The enucleated eye was placed on dry ice or stored at approximately −70° C. for at least 2 hours. Within approximately 3 days, the frozen matrices were collected as right and left eyes for each matrix into the specific tube type listed.
At the time of frozen collection, the ocular tissues were rinsed with saline and blotted dry (as appropriate), weighed, and placed on dry ice. All ocular tissues were collected as single samples.

[1] = Choroid-RPE (OU), male DB rabbits, Group 1, Day 1, […] single oral dose
[2] = Choroid-RPE (OU), male DB rabbits, Group 2, Day 15, […] BID oral (15 mg/kg/day)
[3] = Choroid-RPE (OU), male DB rabbits, Group 3, Day 15, 15 mg/kg/dose BID oral (30 mg/kg/day)
[4] = choroid-RPE, 15 mg/kg, Day 15, 15 mg/kg BID, read-out: Mean Choroid-RPE Concentration
[5] = choroid-RPE, […], Day 1, […] single dose, read-out: Mean Choroid-RPE Concentration
[6] = choroid-RPE, […], Day 15, […] BID, read-out: Mean Choroid-RPE Concentration
[7] = iris-ciliary body (ICB), ICB (OU), male DB rabbits, Group 1, Day 1, 7.5 mg/kg single oral dose
[8] = iris-ciliary body, 15 mg/kg, Day 15, 15 mg/kg BID, read-out: Mean Iris-Ciliary Concentration
[9] = iris-ciliary body, […], Day 1, […] single dose, read-out: Mean Iris-Ciliary Concentration
[10] = iris-ciliary body, […], Day 15, […] BID, read-out: Mean Iris-Ciliary Concentration
[11] = plasma, 15 mg/kg, Day 15, 15 mg/kg BID, read-out: Mean Plasma Concentration
[12] = plasma, […], Day 1, […] single dose, read-out: Mean Plasma Concentration
[13] = plasma, […], Day 15, […] BID, read-out: Mean Plasma Concentration
[14] = retina, 15 mg/kg, Day 15, 15 mg/kg BID, read-out: Mean Retina Concentration
[15] = retina, […], Day 15, […] BID, read-out: Mean Retina Concentration

In the case of `CC(=O)c1nn(CC(=O)N2C[C@H](F)C[C@H]2C(=O)Nc2cccc(Br)n2)c2ccc(-c3cnc(C)nc3)cc12` [Compound 1, (2S,4R)-1-(2-(3-Acetyl-5-(2-methylpyrimidin-5-yl)-1H-indazol-1-yl)acetyl)-N-(6-bromopyridin-2-yl)-4-fluoropyrrolidine-2-carboxamide], the “Ocular tissue exposure in melanin-containing tissues (ICB and choroid-RPE), DB compared to NZW rabbits” value (30 mg/kg/day (15 mg/kg/dose, BID)) is reported as “greater than 10 fold”, the AUC0-12 [1] is reported as 5550 ng·h/g and the AUC0-240 [1] is reported as 14000 ng·h/g. It also gave an AUC(0-24) [1] of 7580 ng·h/g, an AUC(0-inf) [1] of 14500 ng·h/g and an AUC(0-t) [1] of 14000 ng·h/g. For the same compound, the Ctrough [1] was 260 ng/g, the “DN AUC0-12” value [1] was 740 (h*ng/g)/(mg/kg/dose) and the “DN AUC0-24” value [1] was 1010 (h*ng/g)/(mg/kg/day). The “DN Cmax” value [1] was 96.8 (ng/g)/(mg/kg/day, the AUC0-12 [2] was 18500 ng·h/g and the AUC0-240 [2] was 89100 ng·h/g. The AUC(0-24) [2] was 30100 ng·h/g, the AUC(0-t) [2] was 89100 ng·h/g and the Ctrough [2] was 1250 ng/g. The “DN AUC0-12” value [2] was 2470 (h*ng/g)/(mg/kg/dose), the “DN AUC0-24” value [2] was 4020 (h*ng/g)/(mg/kg/day) and the “DN Cmax” value [2] was 267 (ng/g)/(mg/kg/day. It also gave an AUC0-12 [3] of 28200 ng·h/g, an AUC0-240 [3] of 151000 ng·h/g and an AUC(0-24) [3] of 47500 ng·h/g. For the same compound, the AUC(0-t) [3] was 151000 ng·h/g, the Ctrough [3] was 1740 ng/g and the “DN AUC0-12” value [3] was 1880 (h*ng/g)/(mg/kg/dose). The “DN AUC0-24” value [3] was 3170 (h*ng/g)/(mg/kg/day), the “DN Cmax” value [3] was 265 (ng/g)/(mg/kg/day and the “Mean retina concentration” value (Day 1, […] single dose, 24 hr) was “BLQ”. The “Mean plasma concentration” value (Day 1, […] single dose, 96 hr) was “BLQ”, the “Mean retina concentration” value (Day 1, […] single dose, 96 hr) was “BLQ” and the “Mean plasma concentration” value (Day 1, […] single dose, 168 hr) was “BLQ”. The “Mean retina concentration” value (Day 1, […] single dose, 168 hr) was “BLQ”, the “Mean plasma concentration” value (Day 1, […] single dose, 240 hr) was “BLQ” and the “Mean retina concentration” value (Day 1, […] single dose, 240 hr) was “BLQ”. For the same compound, the “Mean plasma concentration” value (Day 15, 15 mg/kg BID, 96 hr) was “BLQ”, the “Mean plasma concentration” value (Day 15, 15 mg/kg BID, 168 hr) was “BLQ” and the “Mean plasma concentration” value (Day 15, 15 mg/kg BID, 240 hr) was “BLQ”. The “Mean plasma concentration” value (Day 15, […] BID, 96 hr) was “BLQ”, the “Mean plasma concentration” value (Day 15, […] BID, 168 hr) was “BLQ” and the “Mean plasma concentration” value (Day 15, […] BID, 240 hr) was “BLQ”. The Tmax (choroid-RPE (choroid-retinal pigment epithelium), Choroid-RPE (OU), male DB rabbits, Group 1, Day 1, 7.5 mg/kg single oral dose) was 1 h, the concentration at 0 h [4] was 1540 ng/g and the concentration at 1 h [4] was 3970 ng/g. For the same compound, the concentration at 6 h [4] was 1880 ng/g, the concentration at 24 h (choroid-RPE, 15 mg/kg, Day 15, 15 mg/kg BID, 24 hr, read-out: Mean Choroid-RPE Concentration) was 1470 ng/g and the concentration at 96 h (choroid-RPE, 15 mg/kg, Day 15, 15 mg/kg BID, 96 hr, read-out: Mean Choroid-RPE Concentration) was 441 ng/g. The concentration at 168 h (choroid-RPE, 15 mg/kg, Day 15, 15 mg/kg BID, 168 hr, read-out: Mean Choroid-RPE Concentration) was 195 ng/g, the concentration at 1 h [5] was 726 ng/g and the concentration at 6 h [5] was 472 ng/g. It also gave a concentration at 12 h [5] of 260 ng/g, a concentration at 24 h (choroid-RPE, […], Day 1, […] single dose, 24 hr, read-out: Mean Choroid-RPE Concentration) of 78 ng/g and a concentration at 96 h (choroid-RPE, […], Day 1, […] single dose, 96 hr, read-out: Mean Choroid-RPE Concentration) of 28.4 ng/g. The concentration at 168 h (choroid-RPE, […], Day 1, […] single dose, 168 hr, read-out: Mean Choroid-RPE Concentration) was 19.4 ng/g, the concentration at 0 h [6] was 695 ng/g and the concentration at 1 h [6] was 2000 ng/g. For the same compound, the concentration at 6 h [6] was 1530 ng/g, the concentration at 24 h (choroid-RPE, […], Day 15, […] BID, 24 hr, read-out: Mean Choroid-RPE Concentration) was 685 ng/g and the concentration at 96 h (choroid-RPE, […], Day 15, […] BID, 96 hr, read-out: Mean Choroid-RPE Concentration) was 238 ng/g. For the same compound, the concentration at 168 h (choroid-RPE, […], Day 15, […] BID, 168 hr, read-out: Mean Choroid-RPE Concentration) was 183 ng/g, the concentration at 240 h (choroid-retinal pigment epithelium (choroid-RPE), 15 mg/kg, Day 15, 15 mg/kg BID, 240 hr, read-out: Mean Choroid-RPE Concentration) was 119 ng/g and the concentration at 240 h (choroid-retinal pigment epithelium (choroid-RPE), […], Day 1, […] single dose, 240 hr, read-out: Mean Choroid-RPE Concentration) was 5.23 ng/g. It also gave a concentration at 240 h (choroid-retinal pigment epithelium (choroid-RPE), […], Day 15, […] BID, 240 hr, read-out: Mean Choroid-RPE Concentration) of 111 ng/g, an MRT last (choroid-retinal pigment epithelium (choroid-RPE), Choroid-RPE (OU), male DB rabbits, Group 1, Day 1, 7.5 mg/kg single oral dose) of 42.8 h and a Tmax (choroid-retinal pigment epithelium (choroid-RPE), Choroid-RPE (OU), male DB rabbits, Group 2, Day 15, 7.5 mg/kg/dose BID oral (15 mg/kg/day)) of 1 h. It also gave a Tmax (choroid-retinal pigment epithelium (choroid-RPE), Choroid-RPE (OU), male DB rabbits, Group 3, Day 15, 15 mg/kg/dose BID oral (30 mg/kg/day)) of 1 h, an MRT last [7] of 5.59 h and a Tmax [7] of 1 h. For the same compound, the Tmax (iris-ciliary body (ICB), ICB (OU), male DB rabbits, Group 3, Day 15, 15 mg/kg/dose BID oral (30 mg/kg/day)) was 1 h, the concentration at 1 h [8] was 2050 ng/g and the concentration at 6 h [8] was 939 ng/g. For the same compound, the concentration at 24 h (iris-ciliary body, 15 mg/kg, Day 15, 15 mg/kg BID, 24 hr, read-out: Mean Iris-Ciliary Concentration) was 460 ng/g, the concentration at 1 h [9] was 435 ng/g and the concentration at 6 h [9] was 163 ng/g. The concentration at 24 h (iris-ciliary body, […], Day 1, […] single dose, 24 hr, read-out: Mean Iris-Ciliary Concentration) was 31.4 ng/g, the concentration at 1 h [10] was 943 ng/g and the concentration at 6 h [10] was 634 ng/g. For the same compound, the concentration at 24 h (iris-ciliary body, […], Day 15, […] BID, 24 hr, read-out: Mean Iris-Ciliary Concentration) was 184 ng/g, the concentration at 0 h [11] was 36.4 ng/mL and the concentration at 1 h [11] was 910 ng/mL. It also gave a concentration at 6 h [11] of 130 ng/mL, a concentration at 12 h [11] of 54.3 ng/mL and a concentration at 24 h (plasma, 15 mg/kg, Day 15, 15 mg/kg BID, 24 hr, read-out: Mean Plasma Concentration) of 10.5 ng/mL. For the same compound, the concentration at 1 h [12] was 423 ng/mL, the concentration at 6 h [12] was 25.1 ng/mL and the concentration at 12 h [12] was 14.8 ng/mL. For the same compound, the concentration at 24 h (plasma, […], Day 1, […] single dose, 24 hr, read-out: Mean Plasma Concentration) was 3.26 ng/mL, the concentration at 0 h [13] was 22.2 ng/mL and the concentration at 1 h [13] was 440 ng/mL. For the same compound, the concentration at 6 h [13] was 90.1 ng/mL, the concentration at 12 h [13] was 29.6 ng/mL and the concentration at 24 h (plasma, […], Day 15, […] BID, 24 hr, read-out: Mean Plasma Concentration) was 6.64 ng/mL. The concentration at 6 h (retina, 15 mg/kg BID, Day 15, 15 mg/kg BID, read-out: Mean Retina Concentration) was 115 ng/g, the concentration at 24 h (retina, 15 mg/kg BID, Day 15, 15 mg/kg BID, 24 hr, read-out: Mean Retina Concentration) was 139 ng/g and the concentration at 96 h (retina, 15 mg/kg BID, Day 15, 15 mg/kg BID, 96 hr, read-out: Mean Retina Concentration) was 31.4 ng/g. It also gave a concentration at 168 h (retina, 15 mg/kg BID, Day 15, 15 mg/kg BID, 168 hr, read-out: Mean Retina Concentration) of 22.5 ng/g, a concentration at 240 h (retina, 15 mg/kg BID, Day 15, 15 mg/kg BID, 240 hr, read-out: Mean Retina Concentration) of 19.7 ng/g and a concentration at 0 h [14] of 45 ng/g. The concentration at 1 h [14] was 1120 ng/g, the concentration at 1 h (retina, […], Day 1, […] single dose, read-out: Mean Retina Concentration) was 188 ng/g and the concentration at 0 h [15] was 20.7 ng/g. It also gave a concentration at 1 h [15] of 306 ng/g.
